# Data reported in patent US7745377B2, “Labeled peptides, proteins and antibodies and processes and intermediates useful for their preparation” (priority 2000, dated 2010).
# How the values were obtained:
# [1] = Spectral data of merocyanine dyes (absorbance and fluorescence spectra); type: physicochemical; design: Absorption Maximum / Emission Maximum: unit not given here; details: n-butanol
# Description: Absorbance spectra were recorded on Hewlett-Packard HP8452 diode array spectrophotometer and fluorescence spectra were recorded on SPEX Fluorolog 2 spectrometer.
# [2] = target: T1, cdc42 (Homo sapiens, UniProt P60953); assay: Fluorescence of mero-CBD solvatochromic activation indicator with cdc42; type: binding; details: for increase of fluorescence intensity on binding activated cdc42: cdc42-GTPγS, excitation and emission maxima
# T1 construct: 6His; made in house
# Description: (§1) Analyses of the solvatochromic activation indicator—A solution of mero-CBD (300 nM) in assay buffer was mixed 1:1 (v/v) with solutions of cdc42 (concentration as indicated), pre-equilibrated with 10 mM GDP or GTPγS as described in Knaus, U. G., Heyworth, P. G., Kinsella, B. T., Curnutte, J. T., and Bokoch, G. M. (1992) J. Biol. Chem. 267, 23575-23582. Emission wavelength of 630 nm and excitation wavelength of 600 nm were used to acquire excitation and emission spectra, respectively. For nucleotide dependence, cdc42 (500 nM) was pre-incubated with varying concentrations of GTPγS (1 to 500 nM). Rac1 and RhoA GTPases were pre-equilibrated with GTP […]S in the same manner.
# (§2) Fluorescence increase as a measure of CBD-cdc42 interaction—The functionality and specificity of mero-CBD was characterized by measuring fluorescence in the presence of saturating amounts of cdc42-GDP or cdc42-GTPγS. […] Negligible increase (<5%) was also observed in the presence of activated Rac1. No effect on the mero-CBD fluorescence was observed when RhoA-GTPγS was present. Furthermore, even in the presence of excess of activated Rac1 and RhoA, GDP- and GTPγS-bound forms of cdc42 were easily distinguished by CBD-A4C fluorescence (data not shown).
# [3] = target: T2, RhoA (Homo sapiens, UniProt P61586); assay: Fluorescence of mero-CBD with RhoA-GTPγS; type: binding; details: RhoA-GTPγS present
# T2 construct: 6His; made in house
# Description: as §1, §2
# [4] = target: T3, Rac1 (Homo sapiens, UniProt P63000); assay: Fluorescence of mero-CBD with activated Rac1; type: binding; details: Rac1 pre-equilibrated with GTPγS
# T3 construct: 6His; made in house
# Description: as §1, §2
# T1 sequence (P60953 whole entry, species assumed): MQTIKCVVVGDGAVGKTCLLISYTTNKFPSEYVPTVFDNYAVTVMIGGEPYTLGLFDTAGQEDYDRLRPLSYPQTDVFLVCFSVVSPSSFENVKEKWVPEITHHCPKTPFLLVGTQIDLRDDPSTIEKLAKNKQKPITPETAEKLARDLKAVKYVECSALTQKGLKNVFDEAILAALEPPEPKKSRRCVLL
# T2 sequence (P61586 whole entry, species assumed): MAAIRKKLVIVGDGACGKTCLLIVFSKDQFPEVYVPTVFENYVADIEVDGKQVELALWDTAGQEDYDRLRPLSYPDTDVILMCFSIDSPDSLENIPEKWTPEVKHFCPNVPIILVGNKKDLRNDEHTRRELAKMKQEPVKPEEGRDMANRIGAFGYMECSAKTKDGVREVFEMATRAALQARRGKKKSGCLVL
Molecule,Extinction coefficient (*10^−3) [1],Quantum Yield [1],Absorption Maximum [1],Emission Maximum [1],increase of fluorescence intensity on binding activated cdc42 [2],increase of fluorescence intensity on binding activated cdc42 ([2]; listed as CBD biosensor),fluorescence increase in presence of cdc42-GDP ([2]; saturating cdc42-GDP),effect on mero-CBD fluorescence of RhoA-GTPγS [3],fluorescence increase in presence of activated Rac1 [4] [%]
CC1(C)/C(=C/C=C/C=C2/C(=O)c3ccccc3S2(=O)=O)N(CCCS(=O)(=O)[O-])c2ccccc21.[Na+] [Compound 3],120,0.17,,,,,,,
CC1(C)/C(=C/C=C/C=C2/C(=O)c3ccccc3C2=C(C#N)C#N)N(CCCS(=O)(=O)[O-])c2ccccc21.[Na+] [Compound 4],80,0.10,,,,,,,
O=C1/C(=C/C=C/C=C2/Sc3ccccc3N2CCCS(=O)(=O)[O-])S(=O)(=O)c2ccccc21.[Na+] [Compound 2],100,0.10,603,623,,,,,
mero-CBD: cdc42 binding domain of WASP (amino acids 201 to 321) conjugated to the merocyanine dye shown in FIG. 11 (conjugate) DIQNPDITSSRYRGLPAPGPSPADKKRSGKKKISKADIGAPSGFKHVSHVGWDPQNGFDVNNLDPDLRSLCSRAGISEAQLTDAETSKLIYDFIEDQGGLEAVRQEMRRQEPLPPPPPPSHHHHHH,,,,,Approximately 3.5 fold,up to 3.5 fold,not cdc42-GDP,No effect,< 5
